Assay: Inhibition of RNA polymerase of Bacteria

Point of comparison: `CCC/C(C)=C/C=C(\C)C(=O)c1c(O)cc([C@H](C)CC/C=C/NC(=O)OC)oc1=O` [MYXOPORIN A], IC50 1000 nM. Against it:
- C/C=C/C/C=C(\C)C(O)CC/C(C)=C/C=C(\C)C(=O)c1c(O)cc([C@H](C)CC/C=C/NC(=O)OC)oc1=O (stereo partly drawn) [CORALLOPYRONIN A] — 4-fold higher, 4000 nM
- C/C(=C\Cc1ccccc1)CCC(=O)C[C@H]1C[C@H](O)C/C(C)=C/C/C=C/C/C(CC(=O)O)=C\C(=O)O1 [RIPOSTATIN] — within 1.5-fold, 800 nM

From ChEMBL document CHEMBL3046384, “Pharmacophore modeling and structure-based virtual screening for a novel switch region target of bacterial RNA polymerase” (Med Chem Res, 2012)
